Measured values from patent US10160747B2, “Compounds and methods for kinase modulation, and indications therefor” (Plexxikon Inc., priority 2016, dated 2018).

Columns and labels:
c-KIT = target: T1, c-KIT (Homo sapiens, UniProt P10721); test: c-KIT recombinant enzyme kinase assay (AlphaScreen); format: biochemical; settings: 100 ATP, 8 pt
T1 construct: purchased Millipore 14-559K
Summary of the method: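 IC50 values are derived from reduced AlphaScreen signal as inhibitors block tyrosine phosphorylation of a biotinylated poly(Glu4-Tyr) peptide (30 nM) by recombinant kinase. FLT3 variants are run at 10 μM ATP, c-KIT at 100 μM.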

[1] = system: MOLM-14 F691L (endogenous FLT3 ITD and transfected FLT3 F691L); test: MOLM-14 F691L cell proliferation assay (CellTiter-Glo); format: cell-based; settings: Homo sapiens, MOLM-14, 72 h; 3 d growth, GMean
Summary of the method: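 MOLM-14 cells (FLT3 ITD) carrying D835Y or F691L, 1×10^4 cells/well, eight 1:3 dilutions from 1 μM final, 0.2% DMSO, 3 days at 37 °C, 5% CO2. Viability by CellTiter-Glo luminescence (ATP content); IC50 from concentration-response.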

T1 sequence (P10721 26-976): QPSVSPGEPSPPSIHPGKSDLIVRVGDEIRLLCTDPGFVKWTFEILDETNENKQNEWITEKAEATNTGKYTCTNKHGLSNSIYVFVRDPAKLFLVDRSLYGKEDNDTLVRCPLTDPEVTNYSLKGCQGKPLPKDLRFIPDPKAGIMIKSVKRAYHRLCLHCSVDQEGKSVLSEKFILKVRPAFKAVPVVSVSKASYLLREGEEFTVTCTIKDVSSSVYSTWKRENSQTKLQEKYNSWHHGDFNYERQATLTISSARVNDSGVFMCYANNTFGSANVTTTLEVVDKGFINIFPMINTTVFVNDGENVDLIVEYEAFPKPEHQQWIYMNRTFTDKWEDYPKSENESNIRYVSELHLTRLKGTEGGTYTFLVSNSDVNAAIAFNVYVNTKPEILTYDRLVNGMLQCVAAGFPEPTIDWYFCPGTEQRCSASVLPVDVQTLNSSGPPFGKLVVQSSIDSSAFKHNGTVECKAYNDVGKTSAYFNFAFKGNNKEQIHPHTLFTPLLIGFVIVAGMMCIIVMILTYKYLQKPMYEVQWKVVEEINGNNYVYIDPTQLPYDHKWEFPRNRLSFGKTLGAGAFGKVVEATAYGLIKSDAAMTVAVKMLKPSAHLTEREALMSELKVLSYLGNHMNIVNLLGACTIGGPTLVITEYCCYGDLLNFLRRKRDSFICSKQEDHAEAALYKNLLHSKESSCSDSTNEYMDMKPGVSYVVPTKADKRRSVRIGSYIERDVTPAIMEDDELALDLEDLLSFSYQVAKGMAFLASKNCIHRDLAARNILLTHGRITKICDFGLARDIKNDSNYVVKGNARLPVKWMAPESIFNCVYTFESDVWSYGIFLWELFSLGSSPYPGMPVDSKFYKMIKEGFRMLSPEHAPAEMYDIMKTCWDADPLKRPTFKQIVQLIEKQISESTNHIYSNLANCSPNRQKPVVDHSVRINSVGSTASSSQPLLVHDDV

| IC50 (c-KIT) [µM] | IC50 [1] [µM] | Structure (SMILES) |
| --- | --- | --- |
| 0.0001 to 10 | 0.0001 to 10 | CCn1cc(Nc2ncc(-c3cc(F)c(CC(=O)Nc4cnc(OC)c(C(F)(F)F)c4)cc3F)cn2)cn1 [Compound P-0247, 2-[4-[2-[(1-ethylpyrazol-4-yl)amino]pyrimidin-5-yl]-2,5-difluoro-phenyl]-N-[6-methoxy-5-(trifluoromethyl)-3-pyridyl]acetamide] |
| 0.0001 to 10 | 0.0001 to 10 | CCn1cc(Nc2ncc(-c3ccc(CC(=O)Nc4cnc(C)c(C(F)(F)F)c4)cc3F)cn2)cn1 [Compound P-0248, 2-[4-[2-[(1-ethylpyrazol-4-yl)amino]pyrimidin-5-yl]-3-fluoro-phenyl]-N-[6-methyl-5-(trifluoromethyl)-3-pyridyl]acetamide] |
| 0.0001 to 10 | 0.0001 to 10 | CCn1cc(Nc2ncc(-c3cc(F)c(CC(=O)Nc4cnc(C)c(C(F)(F)F)c4)cc3F)cn2)cn1 [Compound P-0249, 2-[4-[2-[(1-ethylpyrazol-4-yl)amino]pyrimidin-5-yl]-2,5-difluoro-phenyl]-N-[6-methyl-5-(trifluoromethyl)-3-pyridyl]acetamide] |
| 0.0001 to 10 | 0.0001 to 10 | CCn1cc(Nc2ncc(-c3ccc(CC(=O)Nc4cc(C(F)(F)F)ccn4)cc3)cn2)cn1 [Compound P-0250, 2-[4-[2-[(1-ethylpyrazol-4-yl)amino]pyrimidin-5-yl]phenyl]-N-[4-(trifluoromethyl)-2-pyridyl]acetamide] |
| 0.0001 to 10 | 0.0001 to 10 | CCn1cc(Nc2ncc(-c3ccc(CC(=O)Nc4ccc(C(F)(F)F)cn4)cc3)cn2)cn1 [Compound P-0251, 2-[4-[2-[(1-ethylpyrazol-4-yl)amino]pyrimidin-5-yl]phenyl]-N-[5-(trifluoromethyl)-2-pyridyl]acetamide] |
| 0.0001 to 10 | 0.0001 to 10 | CCn1cc(Nc2ncc(-c3ccc(CC(=O)Nc4ccc(C(F)(F)F)nc4)cc3)cn2)cn1 [Compound P-0252, 2-[4-[2-[(1-ethylpyrazol-4-yl)amino]pyrimidin-5-yl]phenyl]-N-[6-(trifluoromethyl)-3-pyridyl]acetamide] |
| 0.0001 to 10 | 0.0001 to 10 | CCn1cc(Nc2ncc(-c3ccc(CC(=O)Nc4cnc(OC)c(C(F)(F)F)c4)cc3)cn2)cn1 [Compound P-0253, 2-[4-[2-[(1-ethylpyrazol-4-yl)amino]pyrimidin-5-yl]phenyl]-N-[6-methoxy-5-(trifluoromethyl)-3-pyridyl]acetamide] |
| 0.0001 to 10 | 0.0001 to 10 | CCn1cc(Nc2ncc(-c3ccc(CC(=O)Nc4cnc(C)c(C(F)(F)F)c4)cc3)cn2)cn1 [Compound P-0254, 2-[4-[2-[(1-ethylpyrazol-4-yl)amino]pyrimidin-5-yl]phenyl]-N-[6-methyl-5-(trifluoromethyl)-3-pyridyl]acetamide] |
| 0.0001 to 10 | 0.0001 to 10 | CCn1cc(Nc2ncc(-c3ccc(CC(=O)Nc4cc(C(F)(F)F)ccn4)c(F)c3)cn2)cn1 [Compound P-0255, 2-[4-[2-[(1-ethylpyrazol-4-yl)amino]pyrimidin-5-yl]-2-fluoro-phenyl]-N-[4-(trifluoromethyl)-2-pyridyl]acetamide] |
| 0.0001 to 10 | 0.0001 to 10 | CCn1cc(Nc2ncc(-c3ccc(CC(=O)Nc4ccc(C(F)(F)F)cn4)c(F)c3)cn2)cn1 [Compound P-0256, 2-[4-[2-[(1-ethylpyrazol-4-yl)amino]pyrimidin-5-yl]-2-fluoro-phenyl]-N-[5-(trifluoromethyl)-2-pyridyl]acetamide] |
| 0.0001 to 10 | 0.0001 to 10 | CCn1cc(Nc2ncc(-c3ccc(CC(=O)Nc4ccc(C(F)(F)F)nc4)c(F)c3)cn2)cn1 [Compound P-0257, 2-[4-[2-[(1-ethylpyrazol-4-yl)amino]pyrimidin-5-yl]-2-fluoro-phenyl]-N-[6-(trifluoromethyl)-3-pyridyl]acetamide] |
| 0.0001 to 10 | 0.0001 to 10 | CCn1cc(Nc2ncc(-c3ccc(CC(=O)Nc4cncc(C(F)(F)F)c4)c(F)c3)cn2)cn1 [Compound P-0258, 2-[4-[2-[(1-ethylpyrazol-4-yl)amino]pyrimidin-5-yl]-2-fluoro-phenyl]-N-[5-(trifluoromethyl)-3-pyridyl]acetamide] |
| 0.0001 to 10 | 0.0001 to 10 | CCn1cc(Nc2ncc(-c3ccc(CC(=O)Nc4cnc(OC)c(C(F)(F)F)c4)c(F)c3)cn2)cn1 [Compound P-0259, 2-[4-[2-[(1-ethylpyrazol-4-yl)amino]pyrimidin-5-yl]-2-fluoro-phenyl]-N-[6-methoxy-5-(trifluoromethyl)-3-pyridyl]acetamide] |
| 0.0001 to 10 | 0.0001 to 10 | CCn1cc(Nc2ncc(-c3ccc(CC(=O)Nc4cnc(Cl)c(C(F)(F)F)c4)c(F)c3)cn2)cn1 [Compound P-0260, N-[6-chloro-5-(trifluoromethyl)-3-pyridyl]-2-[4-[2-[(1-ethylpyrazol-4-yl)amino]pyrimidin-5-yl]-2-fluoro-phenyl]acetamide] |
| 0.0001 to 10 | 0.0001 to 10 | CCn1cc(Nc2ncc(-c3ccc(CC(=O)Nc4cnc(C)c(C(F)(F)F)c4)c(F)c3)cn2)cn1 [Compound P-0261, 2-[4-[2-[(1-ethylpyrazol-4-yl)amino]pyrimidin-5-yl]-2-fluoro-phenyl]-N-[6-methyl-5-(trifluoromethyl)-3-pyridyl]acetamide] |
| 0.0001 to 10 | 0.0001 to 10 | COc1ncc(NC(=O)Cc2ccc(-c3cnc4[nH]nc(C5CC5)c4c3)cc2F)cc1C(F)(F)F [Compound P-0262, 2-[4-(3-cyclopropyl-1H-pyrazolo[3,4-b]pyridin-5-yl)-2-fluoro-phenyl]-N-[6-methoxy-5-(trifluoromethyl)-3-pyridyl]acetamide] |
| 0.0001 to 10 | 0.0001 to 10 | COc1ncc(NC(=O)Cc2ccc(-c3cnc4[nH]nc(C5CC5)c4c3)cc2)cc1C(F)(F)F [Compound P-0263, 2-[4-(3-cyclopropyl-1H-pyrazolo[3,4-b]pyridin-5-yl)phenyl]-N-[6-methoxy-5-(trifluoromethyl)-3-pyridyl]acetamide] |
| 0.0001 to 10 | 0.0001 to 10 | COCCn1cc(Nc2ncc(-c3ccc(CC(=O)Nc4cnc(OC)c(C(F)(F)F)c4)c(F)c3)cn2)cn1 [Compound P-0265, 2-[2-fluoro-4-[2-[[1-(2-methoxyethyl)pyrazol-4-yl]amino]pyrimidin-5-yl]phenyl]-N-[6-methoxy-5-(trifluoromethyl)-3-pyridyl]acetamide] |
| 0.0001 to 10 | 0.0001 to 10 | COCCn1cc(Nc2ncc(-c3ccc(CC(=O)Nc4cnc(Cl)c(C(F)(F)F)c4)c(F)c3)cn2)cn1 [Compound P-0266, N-[6-chloro-5-(trifluoromethyl)-3-pyridyl]-2-[2-fluoro-4-[2-[[1-(2-methoxyethyl)pyrazol-4-yl]amino]pyrimidin-5-yl]phenyl]acetamide] |
| 0.0001 to 10 | 0.0001 to 10 | COCCn1cc(Nc2ncc(-c3ccc(CC(=O)Nc4cncc(C(F)(F)F)c4)c(F)c3)cn2)cn1 [Compound P-0267, 2-[2-fluoro-4-[2-[[1-(2-methoxyethyl)pyrazol-4-yl]amino]pyrimidin-5-yl]phenyl]-N-[5-(trifluoromethyl)-3-pyridyl]acetamide] |
| 0.0001 to 10 | 0.0001 to 10 | COCCn1cc(Nc2ncc(-c3ccc(CC(=O)Nc4ccc(C(F)(F)F)nc4)c(F)c3)cn2)cn1 [Compound P-0268, 2-[2-fluoro-4-[2-[[1-(2-methoxyethyl)pyrazol-4-yl]amino]pyrimidin-5-yl]phenyl]-N-[6-(trifluoromethyl)-3-pyridyl]acetamide] |
| 0.0001 to 10 | 0.0001 to 10 | COCCn1cc(Nc2ncc(-c3ccc(CC(=O)Nc4ccc(C(F)(F)F)cn4)c(F)c3)cn2)cn1 [Compound P-0269, 2-[2-fluoro-4-[2-[[1-(2-methoxyethyl)pyrazol-4-yl]amino]pyrimidin-5-yl]phenyl]-N-[5-(trifluoromethyl)-2-pyridyl]acetamide] |
| 0.0001 to 10 | 0.0001 to 10 | COCCn1cc(Nc2ncc(-c3ccc(CC(=O)Nc4cc(C(F)(F)F)ccn4)c(F)c3)cn2)cn1 [Compound P-0270, 2-[2-fluoro-4-[2-[[1-(2-methoxyethyl)pyrazol-4-yl]amino]pyrimidin-5-yl]phenyl]-N-[4-(trifluoromethyl)-2-pyridyl]acetamide] |
| 0.0001 to 10 | 0.0001 to 10 | COCCn1cc(Nc2ncc(-c3ccc(CC(=O)Nc4cnc(OC)c(C(F)(F)F)c4)cc3)cn2)cn1 [Compound P-0271, 2-[4-[2-[[1-(2-methoxyethyl)pyrazol-4-yl]amino]pyrimidin-5-yl]phenyl]-N-[6-methoxy-5-(trifluoromethyl)-3-pyridyl]acetamide] |
| 0.0001 to 10 | 0.0001 to 10 | COCCn1cc(Nc2ncc(-c3ccc(CC(=O)Nc4ccc(C(F)(F)F)nc4)cc3)cn2)cn1 [Compound P-0273, 2-[4-[2-[[1-(2-methoxyethyl)pyrazol-4-yl]amino]pyrimidin-5-yl]phenyl]-N-[6-(trifluoromethyl)-3-pyridyl]acetamide] |
| 0.0001 to 10 | 0.0001 to 10 | COCCn1cc(Nc2ncc(-c3ccc(CC(=O)Nc4ccc(C(F)(F)F)cn4)cc3)cn2)cn1 [Compound P-0274, 2-[4-[2-[[1-(2-methoxyethyl)pyrazol-4-yl]amino]pyrimidin-5-yl]phenyl]-N-[5-(trifluoromethyl)-2-pyridyl]acetamide] |
